Laboratory results: US11273172B2, “Synergistic combination of oligonucleotides and chemotherapeutic for treating cancer” (THE BOARD OF TRUSTEES OF THE UNIVERSITY OF ILLINOIS, priority 2017, dated 2022)
Values joined by “and” are separate entries in the source; they are usually repeats but may differ in a detail not shown here. Equal entries are not always repeated.

B1: TRAIL: cytotoxic protein which induces apoptosis in tumor cells, but not in normal cells (protein, UniProt P50591 1-281, looked up)
Tumor necrosis factor ligand …: MAMMEVQGGPSLGQTCVLIVIFTVLLQSLCVAVTYVYFTNELKQMQDKYSKSGIACFLKEDDSYWDPNDEESMNSPCWQVKWQLRQLVRKMILRTSEETISTVQEKQQNISPLVRERGPQRVAAHITGTRGRSNTLSSPNSKNEKALGRKINSWESSRSGHSFLSNLHLRNGELVIHEKGFYYIYSQTYFRFQEEIKENTKNDKQMVQYIYKYTSYPDPILLMKSARNSCWSKDAEYGLYSIYQGGIFELKENDRIFVSVTNEHLIDMDHEASFFGAFLVG

Columns and labels:
Assay in all cases: MTT cell death assay, chemotherapeutic with and without MADD siRNA knockdown
Format in all cases: cell-based
[1] = system: AGS gastric adenocarcinoma cells; conditions: siRNA 10 nM
Procedure: (§1) Cells are cultured and maintained at 37° C. in a humidified atmosphere containing 5% CO2 as described above. […] After 12-18 hours (Day 1), cells are transfected with Scramble or MADD siRNA at 10 nM concentration. The sequences of siRNAs (double-stranded) used are:
(§2) On Day 4, when cells are properly adhered and retained their shape in 96-well plates, drugs are added. All drugs are diluted in complete media on the same day prior to the addition to the cells. In untreated cells, media is replaced with complete media. Two hundred μl volume of media (with or without drugs) is used for the drug treatment assay. Plates are incubated 24 hours, 48 hours and 72 hours at 37° C. in humidified CO2 incubator.
(§3) An MTT assay is performed to determine relative survival after drug treatment as described above. MTT (3-[4,5-Dimethylthiazol-2-yl]-2,5-diphenyltetrazolium bromide; Thiazolyl blue) is purchased from Sigma Aldrich (Cat number: M5655). […] Ten μl of MTT solution is added per well of 96-well plate. Plates are incubated for 2 hours at 37° C. in the humidified CO2 incubator. After 2 hours, media is aspirated using vacuum inside the biosafety hood. Purple colored crystals formed in viable cells are dissolved by adding 100 μl of Dimethyl sulfoxide (Thermo Fisher Scientific; Cat number D128-500) Plates are kept on shaker for 10 minutes for compete dissolution of crystals and absorbance is recorded at 595 nm using Bio-Rad iMark microplate reader. Data is analyzed in MICROSOFT EXCEL® software. Relative survival is calculated with respect to absorbance of control (untreated cells) to determine the effect of transfection as well as combination treatment.
(§4) Each data set takes into account any spontaneous cell death which is observed upon transfection with Scramble siRNA; the amount of spontaneous cell death from Scramble siRNA transfection (baseline) is subtracted from the amount of cell death observed in each siRNA transfection reaction to yield a Net Percent (Net %) cell death after accounting for Scrambled siRNA-induced cell death.
(§5) Cells are cultured and maintained at 37° C. in a humidified atmosphere containing 5% CO2 as described above. […] After 12-18 hours (Day 1), cells are transfected with Scramble or MADD siRNA at 10 nM concentration. The sequences of siRNAs (double stranded) used are:
as §3, with “D128-500).” for “D128-500)”
as §2, with “24 h,” for “24 hours,”, “48 h” for “48 hours”

[2] = system: PLC/PRF/5 hepatic cancer cells; conditions: siRNA 10 nM
Procedure: as §1, §2, §3, §4, §5
as §3, with “D128-500).” for “D128-500)”
as §2, with “24 h,” for “24 hours,”, “48 h” for “48 hours”

[3] = system: JIMT1 breast cancer cells; conditions: Doxorubicin 0.075 μM, siRNA 10 nM, 24 hours post Doxorubicin treatment
Procedure: (§6) Cells are cultured and maintained at 37° C. in a humidified atmosphere containing 5% CO2 as described above. On Day 0, Cells are seeded in […] tissue culture dishes (Corning; Cat Number: 353003) to attain 60-70% confluence. In parallel, cells are also seeded in one 96-well plate (Corning; Cat number: 353072) for analysis of survival before reseeding. After 12-18 hours (Day 1), cells are transfected with Scramble or MADD siRNA at 10 nM concentration. The sequences of siRNAs (double stranded) used are:
as §2, with “added. Doxorubicin was added at a working concentration of 5.0 nM, 9.375 nM, 0.075 μM, 0.25 μM, 0.5 μM, and 0.8 μM.” for “added.”
(§7) An MTT assay is performed to determine relative survival after drug treatment as described above. MTT (3-[4,5-Dimethylthiazol-2-yl]-2,5-diphenyltetrazolium bromide; Thiazolyl blue) is purchased from Sigma Aldrich (Cat number: M5655). MTT is dissolved in sterile DPBS at the concentration of 5 mg/ml and filtered through […] syringe filter (Corning; Cat number: 431220). Ten μl of MTT solution is added per well of 96-well plate. Plates are incubated for 2 hours at 37° C. in the humidified CO2 incubator. After 2 hours, media is aspirated using vacuum inside the biosafety hood. Purple colored crystals formed in viable cells are dissolved by adding 100 μl of Dimethyl sulfoxide (Thermo Fisher Scientific; Cat number D128-500). Plates are kept on shaker for 10 minutes for compete dissolution of crystals and absorbance is recorded at 595 nm using Bio-Rad iMark microplate reader. Data is analyzed in MICROSOFT EXCEL® software. Relative survival is calculated with respect to absorbance of control (untreated cells) to determine the effect of transfection as well as combination treatment.
as §4

[4] = system: N87 gastric carcinoma cells; conditions: Doxorubicin 0.8 μM, siRNA 10 nM, 72 hours post Doxorubicin treatment
Procedure: as §6
as §2, with “added. Doxorubicin was added at a working concentration of 5.0 nM, 9.375 nM, 0.075 μM, 0.25 μM, 0.5 μM, and 0.8 μM.” for “added.”
as §7, §4

[5] = system: HTH7 thyroid cancer cells; conditions: siRNA 10 nM
Procedure: as §5, §2, §3, §4

[6] = Sorafinib 0.625 μM, 48 hours post Sorafinib treatment
[7] = Sorafinib 0.375 μM, 24 hours post Sorafinib treatment
[8] = 5-flurouracil 25 μM, 72 hours post 5-flurouracil treatment
[9] = Gemcitabine 1 μM, 48 hours post Gemcitabine treatment
[10] = TRAIL 6.25 ng/ml, 72 hours post TRAIL treatment
[11] = Cisplatin 1.875 μM, 24 hours post Cisplatin treatment
[12] = Gemcitabine 0.03125 μM, 24 hours post Gemcitabine treatment
[13] = TRAIL 50 ng/ml, 24 hours post TRAIL treatment
[14] = Cisplatin 1.25 μM, 72 hours post Cisplatin treatment
[15] = Cisplatin 5 μM, 24 hours post Cisplatin treatment

| Molecule | Net % cell death after accounting for Scrambled siRNA [1, 6] | Observed % Cell death [1, 6] [%] | Net % cell death after accounting for Scrambled siRNA [2, 7] | Observed % Cell death [2, 7] [%] | Observed % Cell death [1, 8] [%] | Net % cell death after accounting for Scrambled siRNA [1, 9] | Observed % Cell death [1, 9] [%] | Observed % Cell death [1, 10] [%] | Net % cell death after accounting for Scrambled siRNA [2, 11] | Observed % Cell death [2, 11] [%] | Net % cell death after accounting for Scrambled siRNA [2, 12] | Observed % Cell death [2, 12] [%] | Net % cell death after accounting for Scrambled siRNA [2, 13] | Observed % Cell death [2, 13] [%] | Observed % Cell death [3] [%] | Observed % Cell death [4] [%] | Net % cell death after accounting for Scrambled siRNA [5, 14] | Observed % Cell death [5, 14] [%] | Net % cell death after accounting for Scrambled siRNA [5, 15] | Observed % Cell death [5, 15] [%] | also measured |
| --- | --- | --- | --- | --- | --- | --- | --- | --- | --- | --- | --- | --- | --- | --- | --- | --- | --- | --- | --- | --- | --- |
| CNC(=O)c1cc(Oc2ccc(NC(=O)Nc3ccc(Cl)c(C(F)(F)F)c3)cc2)ccn1 [Sorafinib] | 12% | 12 | 13% | 13 | – | – | – | – | – | – | – | – | – | – | – | – | – | – | – | – | – |
| MADD siRNA: siRNA targeting exon 13L of the MADD splice variant of the IG20 gene; SEQ ID NO: 4, 5′-GAUUGUCAUAGAUUCGCCGTT-3′ (chemistry not given here) | 5% and 14 − 9 = 5% | 14 | 20% and 25 − 5 = 20% | 25 | 20 | 5% and 14 − 9 = 5% | 14 | 20 | 20% and 25 − 5 = 20% | 25 | 20% and 25 − 5 = 20% | 25 | 20% and 25 − 5 = 20% | 25 | 59 | 21 | 54% and 54 − 0 = 54% | 54 | 6% and 6 − 0 = 6% | 6 | – |
| Scrambled siRNA: non-specific Scramble siRNA, negative control; SEQ ID NO: 5, 5′-UUGCUAAGCGUCGGUCAAUTT-3′ (chemistry not given here) | 9 − 9 = 0% | 9 | 5 − 5 = 0% | 5 | 17 | 9 − 9 = 0% | 9 | 17 | 5 − 5 = 0% | 5 | 5 − 5 = 0% | 5 | 5 − 5 = 0% | 5 | 33 | 14 | 0 − 0 = 0% | 0 | 0 − 0 = 0% | 0 | Net % cell death after accounting for Scrambled siRNA [1, 8]: 17 − 17 = 0%; Net % cell death after accounting for Scrambled siRNA [1, 10]: 17 − 17 = 0%; Net % cell death after accounting for Scrambled siRNA [3]: 33 − 33 = 0%; Net % cell death after accounting for Scrambled siRNA [4]: 14 − 14 = 0% |
| B1 | – | – | – | – | – | – | – | 7 | – | – | – | – | 0% | 0 | – | – | – | – | – | – | Net % cell death after accounting for Scrambled siRNA [1, 10]: 7% |
